Assay results reported in patent US6083944A, “Quinoline-containing α-ketoamide cysteine and serine protease inhibitors” (Cephalon, Inc., priority 1998, dated 2000).

How the values were obtained:
Format in all cases: biochemical
[1] = target: T1, cathepsin B (Homo sapiens, UniProt P07858); experiment: Inhibition of cathepsin B (Cbz-Phe-Arg-AMC hydrolysis); settings: Table 6; pH 6.0; read-out: Cath. B IC50
T1 construct: purchased Calbiochem 219364
Method: (§1) To evaluate inhibitory activity, stock solutions (40 times concentrated) of each compound to be tested were prepared in 100% anhydrous DMSO and 5 μl of each inhibitor preparation was aliquoted into each of three wells of a 96-well plate. Recombinant human calpain I, prepared by the method of Meyer et al. (Biochem. J. 1996, 314: 511-519), was diluted into assay buffer (i.e., 50 mM Tris, 50 mM NaCl, 1 mM EDTA, 1 mM EGTA, and 5 mM β-mercaptoethanol, pH 7.5, including 0.2 mM Succ-Leu-Tyr-MNA), and 175 μl was aliquoted into the same wells containing the independent inhibitor stocks as well as to positive control wells containing 5 μl DMSO, but no compound. To start the reaction, 20 μl of 50 mM CaCl2 in assay buffer was added to all wells of the plate, excepting three, which were used as background signal baseline controls. Substrate hydrolysis was monitored every 5 minutes for a total of 30 minutes. Substrate hydrolysis in the absence of inhibitor was linear for up to 15 minutes.
(§2) Inhibition of calpain I activity was calculated as the percent decrease in the rate of substrate hydrolysis in the presence of inhibitor relative to the rate in its absence. Comparison between the inhibited and control rates was made within the linear range for substrate hydrolysis. The IC50 S of inhibitors (concentration yielding 50% inhibition) were determined from the percent decrease in rates of substrate hydrolysis in the presence of five to seven different concentrations of the test compound. The results were plotted as percent inhibition versus log inhibitor concentration, and the IC50 was calculated by fitting the data to the four-parameter logistic equation shown below using the program GraphPad Prism (GraphPad Software, Inc., San Diego, Calif.).
Additionally, the order of reagents added to the plate was altered because the enzyme is consitutively active. Following inhibitor addition to the plates, appropriate 2× concentrated stock dilutions of the enzyme preparations were made in assay buffer and 100 μl added to each well. The assay was initiated by addition of 100 μl of 2× concentrated stock dilution of substrate in assay buffer. Substrate hydrolysis was monitored using a Fluoriskan II (ex=390 nm; em=460 nm).

[2] = target: T2, α-chymotrypsin (Bos taurus, UniProt P00766); experiment: Inhibition of serine protease α-chymotrypsin (Succ-Ala-Ala-Pro-Phe-AMC hydrolysis); settings: Table 6; pH 7.5
T2 construct: purchased Sigma Chem. Co. C-3142
Method: as §1, §2
Additionally, because α-chymotrypsin is not a calcium sensitive enzyme and is constitutively active, following addition of inhibitor stocks to the 96 well plates, 100 μl of a 2-fold concentrated stock of enzyme in dilution buffer was first added and the reaction was started by addition of 100 μl of a 2-fold concentrated stock of substrate in assay buffer. Substrate hydrolysis was monitored every 5 minutes up to 30 minutes using a Fluoroskan II (ex=390 nm em=460 nm).

[3] = target: T3, Recombinant human calpain I (Homo sapiens, UniProt P07384); experiment: Inhibition of calpain I (Succ-Leu-Tyr-MNA hydrolysis); settings: for inhibition at 10 µM: values in parentheses, at 10,000 nM; for Calpain I IC50 ** (value in parentheses: % inhibition): ** explained as 10,000 nM only in footnotes to Tables 2-4
T3 construct: made in house
T3 sequence (P07384 1-714): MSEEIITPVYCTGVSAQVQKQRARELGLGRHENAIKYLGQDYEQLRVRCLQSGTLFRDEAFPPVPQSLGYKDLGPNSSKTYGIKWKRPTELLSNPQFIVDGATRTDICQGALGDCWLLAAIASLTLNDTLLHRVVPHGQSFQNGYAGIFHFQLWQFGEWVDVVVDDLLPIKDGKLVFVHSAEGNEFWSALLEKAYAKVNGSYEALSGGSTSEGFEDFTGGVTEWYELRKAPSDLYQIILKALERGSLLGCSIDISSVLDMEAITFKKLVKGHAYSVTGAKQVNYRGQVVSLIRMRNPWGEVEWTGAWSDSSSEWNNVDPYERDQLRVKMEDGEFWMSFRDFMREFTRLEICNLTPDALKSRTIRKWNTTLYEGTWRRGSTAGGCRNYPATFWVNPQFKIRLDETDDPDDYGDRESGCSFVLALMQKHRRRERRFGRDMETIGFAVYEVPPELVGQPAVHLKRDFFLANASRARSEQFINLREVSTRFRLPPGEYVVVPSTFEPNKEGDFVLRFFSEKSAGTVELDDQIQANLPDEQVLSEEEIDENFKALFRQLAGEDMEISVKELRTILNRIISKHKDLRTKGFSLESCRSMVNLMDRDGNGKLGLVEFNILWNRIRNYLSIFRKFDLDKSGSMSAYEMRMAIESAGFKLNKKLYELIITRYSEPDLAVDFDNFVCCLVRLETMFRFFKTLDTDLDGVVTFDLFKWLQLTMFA
Method: as §1, §2
The parameters a, b, c, and d are defined as follows: a is % inhibition in the absence of inhibitor, b is the slope, c is the IC50, and d is the % inhibition at an infinite concentration of inhibitor.

SMILES	IC50 ([3]; Tables 2-4, pH 7.5) [nM]	inhibition at 10 µM ([3]; Tables 2-4) [%]	further results
O=C(NCCNS(=O)(=O)c1ccc([N+](=O)[O-])cc1)C(=O)C(Cc1ccccc1)NC(=O)c1cc(C#Cc2ccccc2)nc2ccccc12 (single isomer, unassigned) [Example 84]			IC50 [1]: 348 nM; IC50 [2]: 14 nM
O=C(NCCNS(=O)(=O)c1ccc(-c2ccccn2)s1)C(=O)C(Cc1ccccc1)NC(=O)c1cc(C#Cc2ccccc2)nc2ccccc12 (stereo not drawn) [Example 86]			IC50 [1]: 1030 nM; IC50 [2]: 475 nM
O=C(NCCNS(=O)(=O)c1cccs1)C(=O)C(Cc1ccccc1)NC(=O)c1cc(C#Cc2ccccc2)nc2ccccc12 (stereo not drawn) [Example 90]	76		
O=C(NCCNS(=O)(=O)C=Cc1ccccc1)C(=O)C(Cc1ccccc1)NC(=O)c1cc(C#Cc2ccccc2)nc2ccccc12 (stereo not drawn) [Example 91]	42		
O=C(NCCNS(=O)(=O)Cc1ccccc1)C(=O)C(Cc1ccccc1)NC(=O)c1cc(C#Cc2ccccc2)nc2ccccc12 (stereo not drawn) [Example 92]	94		
CS(=O)(=O)NCCNC(=O)C(=O)C(Cc1ccccc1)NC(=O)c1cc(C#Cc2ccccc2)nc2ccccc12 (stereo not drawn) [Example 93]	180		
CN(C)S(=O)(=O)NCCNC(=O)C(=O)C(Cc1ccccc1)NC(=O)c1cc(C#Cc2ccccc2)nc2ccccc12 (stereo not drawn) [Example 94]	141		
O=C(NCCNS(=O)(=O)c1ccccc1)C(=O)C(Cc1ccccc1)NC(=O)c1cc(C#Cc2ccccc2)nc2ccccc12 (stereo not drawn) [Example 95]	43		
CC(C)(C)OC(=O)NCCCNC(=O)C(=O)C(Cc1ccccc1)NC(=O)c1cc(C#Cc2ccccc2)nc2ccccc12 (stereo not drawn) [Example 97]		100	
O=C(NCCCNC(=O)C(=O)C(Cc1ccccc1)NC(=O)c1cc(C#Cc2ccccc2)nc2ccccc12)Nc1ccccc1 (stereo not drawn) [Example 98]	126		
CS(=O)(=O)NCCCNC(=O)C(=O)C(Cc1ccccc1)NC(=O)c1cc(C#Cc2ccccc2)nc2ccccc12 (stereo not drawn) [Example 99]	130		
O=C(NCCCCCCNS(=O)(=O)c1cccc2c(Cl)cccc12)C(=O)C(Cc1ccccc1)NC(=O)c1cc(C#Cc2ccccc2)nc2ccccc12 (stereo not drawn) [Example 101]		84	
O=C(NOCCNS(=O)(=O)c1ccccc1)C(=O)C(Cc1ccccc1)NC(=O)c1cc(C#Cc2ccccc2)nc2ccccc12 (stereo not drawn) [Example 105]	128		
COC(=O)C(CCCCNC(=O)C(=O)C(Cc1ccccc1)NC(=O)c1cc(C#Cc2ccccc2)nc2ccccc12)NC(=O)OC(C)(C)C (stereo not drawn) [Example 106]		97	
CC(C)(C)OC(=O)CCNC(=O)C(=O)C(Cc1ccccc1)NC(=O)c1cc(C#Cc2ccccc2)nc2ccccc12 (stereo not drawn) [Example 107]		93	
O=C(NCCNC(=O)[C@@H]1CCCN1S(=O)(=O)c1ccccc1)C(=O)C(Cc1ccccc1)NC(=O)c1cc(C#Cc2ccccc2)nc2ccccc12 (stereo partly drawn) [Example 108]		94	
COC(=O)C(Cc1ccccc1)NC(=O)C(=O)C(Cc1ccccc1)NC(=O)c1cc(C#Cc2ccccc2)nc2ccccc12 (stereo not drawn) [Example 109]	655		
CN(C)NC(=O)C(=O)C(Cc1ccccc1)NC(=O)c1cc(C#Cc2ccccc2)nc2ccccc12 (stereo not drawn) [Example 110]		43	
C=C(C)C(=O)OCCNC(=O)C(=O)C(Cc1ccccc1)NC(=O)c1cc(C#Cc2ccccc2)nc2ccccc12 (stereo not drawn) [Example 111]		95	
COCCNC(=O)C(=O)C(CC(C)C)NC(=O)c1cc(C#Cc2ccccc2)nc2ccccc12 (stereo not drawn) [Example 112]		95	
COC(CNC(=O)C(=O)C(CC(C)C)NC(=O)c1cc(C#Cc2ccccc2)nc2ccccc12)OC (stereo not drawn) [Example 113]		92	
CC(C)CC(NC(=O)c1cc(C#Cc2ccccc2)nc2ccccc12)C(=O)C(=O)NCCOCCO (stereo not drawn) [Example 114]		93	

SMILES	IC50 ([3]; Tables 2-4, pH 7.5) [nM]	inhibition at 10 µM ([3]; Tables 2-4) [%]	further results
CC(C)CC(NC(=O)c1cc(C#Cc2ccccc2)nc2ccccc12)C(=O)C(=O)NCCNC(=O)OCc1ccccc1 (stereo not drawn) [Example 115]		100	
CC(C)CC(NC(=O)c1cc(C#Cc2ccccc2)nc2ccccc12)C(=O)C(=O)NCCNC(=O)Nc1ccccc1 (stereo not drawn) [Example 116]		89	
CC(C)CC(NC(=O)c1cc(C#Cc2ccccc2)nc2ccccc12)C(=O)C(=O)NCCNS(=O)(=O)c1ccccc1 (stereo not drawn) [Example 117]		82	
CC(C)CC(NC(=O)c1cc(C#Cc2ccccc2)nc2ccccc12)C(=O)C(=O)NCCCNS(=O)(=O)c1ccccc1 (stereo not drawn) [Example 119]		80	
CCCCNC(=O)C(=O)C(Cc1ccccc1)NC(=O)c1cc(C=Cc2ccccc2)nc2ccccc12 (stereo not drawn) [Example 130]	105		
O=C(NCCNS(=O)(=O)c1ccccc1)C(=O)C(Cc1ccccc1)NC(=O)c1cc(-c2cccnc2)nc2ccccc12 (stereo not drawn) [Example 136]		99	
O=C(NCCNS(=O)(=O)c1ccccc1)C(=O)C(Cc1ccccc1)NC(=O)c1cc(CCc2ccccc2)nc2ccccc12 (stereo not drawn) [Example 137]	16		
O=C(NCCNS(=O)(=O)c1ccc(-c2ccccn2)s1)C(=O)[C@H](Cc1ccccc1)NC(=O)c1cc(Cl)nc2ccccc12 [Example 144]	14		
O=C(NCCNS(=O)(=O)c1ccc(-c2ccccn2)s1)C(=O)C(Cc1ccccc1)NC(=O)c1cc(C2CC2)nc2ccccc12 (stereo not drawn) [Example 145]	71		
O=C(NCCNS(=O)(=O)c1ccc(-c2ccccn2)s1)C(=O)C(Cc1ccccc1)NC(=O)c1cc(-c2cccs2)nc2ccccc12 (stereo not drawn) [Example 146]	85		
O=C(NCCS(=O)(=O)Nc1ccccc1)C(=O)C(Cc1ccccc1)NC(=O)c1cc(Cl)nc2ccccc12 (stereo not drawn) [Example 147]	81		
CCCCC(NC(=O)c1cc(Cl)nc2ccccc12)C(=O)C(=O)NCCNS(=O)(=O)c1ccc([N+](=O)[O-])cc1 (stereo not drawn) [Example 149]			IC50 ([3]; Table 5, head prints no unit): 23 nM
CCCC(NC(=O)c1cc(Cl)nc2ccccc12)C(=O)C(=O)NCCNS(=O)(=O)c1ccc([N+](=O)[O-])cc1 (stereo not drawn) [Example 150]			Calpain I IC50 ** (value in parentheses: % inhibition) ([3]; Table 5): 78%
CCCCC(NC(=O)c1cc(Cl)nc2ccccc12)C(=O)C(=O)NCCNS(=O)(=O)c1ccc(Cl)c(Cl)c1 (stereo not drawn) [Example 151]			IC50 ([3]; Table 5, head prints no unit): 217 nM
CCCC(NC(=O)c1cc(Cl)nc2ccccc12)C(=O)C(=O)NCCNS(=O)(=O)c1ccc(Cl)c(Cl)c1 (stereo not drawn) [Example 152]			IC50 ([3]; Table 5, head prints no unit): 325 nM
O=C(NCCNS(=O)(=O)c1ccccc1)C(=O)C(Cc1ccccc1)NC(=O)c1nc(-c2ccccc2)nc2ccccc12 (stereo not drawn) [Example 153]			Calpain I IC50 ** (value in parentheses: % inhibition) ([3]; Table 5): 95%
O=C(NCCNS(=O)(=O)c1ccc(-c2ccccn2)s1)C(=O)C(Cc1ccccc1)NC(=O)c1nc(-c2ccccc2)nc2ccccc12 (stereo not drawn) [Example 154]			IC50 ([3]; Table 5, head prints no unit): 83 nM
CCCCC(NC(=O)c1cc(Cl)nc2ccccc12)C(=O)C(=O)NCCNS(=O)(=O)c1ccc(-c2ccccn2)s1 (stereo not drawn) [Example 155]			IC50 ([3]; Table 5, head prints no unit): 31 nM
CCCC(NC(=O)c1cc(Cl)nc2ccccc12)C(=O)C(=O)NCCNS(=O)(=O)c1ccc(-c2ccccn2)s1 (stereo not drawn) [Example 156]			IC50 ([3]; Table 5, head prints no unit): 43 nM
COCC(NC(=O)c1cc(Cl)nc2ccccc12)C(=O)C(=O)NCCNS(=O)(=O)c1ccc(-c2ccccn2)s1 (stereo not drawn) [Example 157]			IC50 ([3]; Table 5, head prints no unit): 61 nM
COCC(NC(=O)c1cc(Cl)nc2ccccc12)C(=O)C(=O)NCCNS(=O)(=O)c1ccccc1 (stereo not drawn) [Example 158]			Calpain I IC50 ** (value in parentheses: % inhibition) ([3]; Table 5): 94%
